From patent US20120214862A1, “MODULATION OF FACTOR 7 EXPRESSION” (ISIS Pharmaceuticals, Inc., priority 2009, published 2012)
In the oligonucleotide strings, read from the 5' end, every base follows the letter of its sugar. An asterisk marks phosphorothioate; unmarked linkages are phosphodiester. Other units and linkages are bracketed, terminal groups are in braces. A string of capitals states the bases alone. e = 2'-O-(2-methoxyethyl) (MOE); [5mC] = 5-methylcytosine; d = 2'-deoxy (DNA)

System: human Factor 7 mRNA
Experiment: Antisense inhibition of human Factor 7 mRNA in HepB3 cells, lipofectin, 50 nM, real-time RT-PCR
Type: cell-based
Settings: for % Inhibition (human Factor 7 mRNA): 50 nM, ~24 h
Summary of the method: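 After transfection of wells containing 4,000 cells, treatment ran for approximately 24 h. RIBOGREEN®-measured total RNA served for normalisation, and inhibition was calculated as a percentage of untreated control.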

[1] = HepB3 cells, gapmers targeted to nucleobases 11830 to 11869 of SEQ ID NO: 1 (Table 9)
[2] = Example 1, HepB3 cells, lipofectin, relative to untreated control cells
[3] = HepB3 cells, lipofectin, 50 nM antisense oligonucleotide, approximately 24 hours, primer probe set RTS 2927, relative to untreated control
[4] = Example 4, HepB3 cells, lipofectin, relative to untreated control
[5] = HepB3 cells, gapmers targeted to nucleobases 13760 to 13789 of SEQ ID NO: 1 (Table 10)
[6] = HepB3 cells, gapmers targeted to nucleobases 14707 to 14732 of SEQ ID NO: 1 (Table 11)

## 422234 (antisense eT*eG*dG*dT*d[5mC]*dA*dG*dG*dG*d[5mC]*dT*dG*dG*dT*dT*eT*eT*eG*eG*eA) [compound 422234]
[1]
  % Inhibition of human Factor 7 mRNA levels: 62%

## 407931 (antisense e[5mC]*eT*eT*e[5mC]*eA*dG*dA*dG*dG*dA*d[5mC]*dA*dG*d[5mC]*dA*e[5mC]*eA*e[5mC]*eA*eT) [compound 407931]
[2]
  % Inhibition (human Factor 7 mRNA): 56%

## 416484 (antisense eT*eA*e[5mC]*eA*eG*d[5mC]*d[5mC]*dT*d[5mC]*dA*dA*dA*d[5mC]*dA*dT*e[5mC]*eT*eA*eT*e[5mC]) [compound 416484]
[3]
  % Inhibition of human Factor 7 mRNA levels: 0%

## 416493 (antisense eT*e[5mC]*eT*eT*eG*dG*dG*dT*dG*dT*dG*dG*dA*dT*dG*eT*eA*eA*eA*eT) [compound 416493]
[3]
  % Inhibition of human Factor 7 mRNA levels: 0%

## 416532 (antisense eG*eG*eA*e[5mC]*e[5mC]*d[5mC]*dA*dG*dA*dT*dG*dA*d[5mC]*d[5mC]*dA*eG*e[5mC]*eA*eG*eG) [compound 416532]
[3]
  % Inhibition of human Factor 7 mRNA levels: 12%

## 407664 (antisense e[5mC]*eA*eG*eG*eG*d[5mC]*dG*dA*dG*dG*d[5mC]*dA*dA*d[5mC]*d[5mC]*e[5mC]*e[5mC]*eG*eT*eG) [compound 407664]
[2]
  % Inhibition (human Factor 7 mRNA): 70%

## 407903 (antisense e[5mC]*e[5mC]*eG*e[5mC]*eG*dG*dA*dG*dA*d[5mC]*d[5mC]*dA*d[5mC]*d[5mC]*d[5mC]*eA*eG*eA*eT*eG) [compound 407903]
[2]
  % Inhibition (human Factor 7 mRNA): 98%

## 407659 (antisense eG*eA*eT*eG*eG*d[5mC]*dA*dT*d[5mC]*dG*dA*dG*dT*d[5mC]*d[5mC]*eA*e[5mC]*eT*e[5mC]*eT) [compound 407659]
[2]
  % Inhibition (human Factor 7 mRNA): 55%

## 407889 (antisense eT*e[5mC]*e[5mC]*eT*eG*dG*dG*dT*dT*dA*d[5mC]*dG*dA*dA*dG*eA*e[5mC]*eT*eG*e[5mC]) [compound 407889]
[2]
  % Inhibition (human Factor 7 mRNA): 54%

## 407612 (antisense eA*eG*eA*eT*e[5mC]*dA*dG*d[5mC]*dT*dG*dG*dT*d[5mC]*dA*dT*e[5mC]*e[5mC]*eT*eT*eG) [compound 407612]
[2]
  % Inhibition (human Factor 7 mRNA): 82%

## 416476 (antisense eG*e[5mC]*eA*eG*eG*dT*dG*dG*dG*d[5mC]*dT*dT*dG*dG*d[5mC]*eT*eG*eA*eA*eG) [compound 416476]
[3]
  % Inhibition of human Factor 7 mRNA levels: 58%

## 422089 (antisense eG*eT*e[5mC]*eA*eG*dG*dG*d[5mC]*dT*dG*dG*dT*dT*dT*dT*eG*eG*eA*eG*eG) [compound 422089]
[1]
  % Inhibition of human Factor 7 mRNA levels: 22%

## 422269 (antisense eG*eA*dG*d[5mC]*dG*d[5mC]*dG*dG*dA*dA*dG*dA*dA*dG*dG*eG*eA*e[5mC]*eG*eG) [compound 422269]
[4]
  % Inhibition (human Factor 7 mRNA): 27%

## 407605 (antisense eT*eT*eG*eA*eG*dG*d[5mC]*dA*d[5mC]*dA*d[5mC]*dT*dG*dG*dT*e[5mC]*e[5mC]*e[5mC]*e[5mC]*eA) [compound 407605]
[2]
  % Inhibition (human Factor 7 mRNA): 58%

## 422165 (antisense eG*eG*eA*dG*dA*d[5mC]*dA*dA*dT*dG*dG*dT*d[5mC]*dA*dG*dG*dG*e[5mC]*eT*eG) [compound 422165]
[1]
  % Inhibition of human Factor 7 mRNA levels: 57%

## 422290 (antisense eT*e[5mC]*dT*dG*d[5mC]*dA*dG*dG*dA*dG*d[5mC]*dG*dG*d[5mC]*d[5mC]*eT*eA*eA*eA*eT) [compound 422290]
HepB3 cells, gapmers (5-10-5, 3-14-3, 2-13-5 MOE) targeted to nucleobases 4868 to 4899 of SEQ ID NO: 1
  % Inhibition of human Factor 7 mRNA levels: 50%

## 422116 (antisense eT*eG*e[5mC]*eG*e[5mC]*d[5mC]*dA*d[5mC]*d[5mC]*d[5mC]*dG*d[5mC]*d[5mC]*dG*dG*e[5mC]*eT*e[5mC]*eT*eG) [compound 422116]
[5]
  % Inhibition of human Factor 7 mRNA levels: 52%

## 407650 (antisense e[5mC]*e[5mC]*eA*eT*eG*dT*dG*dA*dG*dG*dG*dT*dT*d[5mC]*dA*eT*eT*eT*e[5mC]*eA) [compound 407650]
[2]
  % Inhibition (human Factor 7 mRNA): 39%

## 407960 (antisense eG*eT*eG*e[5mC]*e[5mC]*d[5mC]*dA*dG*dG*dA*d[5mC]*dG*dG*d[5mC]*d[5mC]*e[5mC]*eT*eG*e[5mC]*eA) [compound 407960]
[2]
  % Inhibition (human Factor 7 mRNA): 53%

## 422131 (antisense eA*eG*e[5mC]*e[5mC]*eT*dG*dA*dG*dG*d[5mC]*d[5mC]*dA*dG*d[5mC]*dA*eG*eA*eT*e[5mC]*eA) [compound 422131]
[6]
  % Inhibition of human Factor 7 mRNA levels: 68%

## 407599 (antisense e[5mC]*e[5mC]*eT*eG*eG*dG*dA*dG*dA*d[5mC]*d[5mC]*dA*dT*dG*dA*eT*eG*eA*eA*eA) [compound 407599]
[2]
  % Inhibition (human Factor 7 mRNA): 73%

## 416462 (antisense eG*eG*e[5mC]*eA*eG*dT*d[5mC]*d[5mC]*dT*dG*dG*dG*dT*d[5mC]*dA*eT*e[5mC]*eA*eG*e[5mC]) [compound 416462]
[3]
  % Inhibition of human Factor 7 mRNA levels: 60%

## 416474 (antisense eT*eG*eT*e[5mC]*eT*dG*d[5mC]*d[5mC]*dT*d[5mC]*d[5mC]*dA*dG*dG*dA*e[5mC]*eA*eA*e[5mC]*e[5mC]) [compound 416474]
[3]
  % Inhibition of human Factor 7 mRNA levels: 40%

## 422204 (antisense eG*e[5mC]*eA*dG*d[5mC]*d[5mC]*dT*dG*dA*dG*dG*d[5mC]*d[5mC]*dA*dG*d[5mC]*dA*eG*eA*eT) [compound 422204]
[6]
  % Inhibition of human Factor 7 mRNA levels: 72%

## 422200 (antisense e[5mC]*e[5mC]*eT*dG*dA*dG*dG*d[5mC]*d[5mC]*dA*dG*d[5mC]*dA*dG*dA*dT*d[5mC]*eA*e[5mC]*eG) [compound 422200]
[6]
  % Inhibition of human Factor 7 mRNA levels: 58%

## 422249 (antisense eT*eG*dG*d[5mC]*dT*dG*dA*dG*dG*dA*dG*dA*d[5mC]*dA*dA*eT*eG*eG*eT*e[5mC]) [compound 422249]
[1]
  % Inhibition of human Factor 7 mRNA levels: 52%

## 416555 (antisense eA*eA*eA*eG*eA*dT*d[5mC]*dA*dG*dG*d[5mC]*dA*dA*dA*dG*eA*eT*e[5mC]*e[5mC]*e[5mC]) [compound 416555]
[3]
  % Inhibition of human Factor 7 mRNA levels: 6%

## 416469 (antisense eG*e[5mC]*eA*eG*e[5mC]*d[5mC]*dA*d[5mC]*dT*d[5mC]*dG*dA*dT*dG*dT*eA*e[5mC]*eT*eG*eG) [compound 416469]
[3]
  % Inhibition of human Factor 7 mRNA levels: 55%

## 422127 (antisense eT*eA*e[5mC]*eT*eG*dA*dG*d[5mC]*dG*d[5mC]*dG*dG*dA*dA*dG*eA*eA*eG*eG*eG) [compound 422127]
[4]
  % Inhibition (human Factor 7 mRNA): 17%

## 422176 (antisense e[5mC]*e[5mC]*eG*d[5mC]*d[5mC]*dG*dG*d[5mC]*dT*d[5mC]*dT*dG*d[5mC]*dT*d[5mC]*dA*dT*e[5mC]*e[5mC]*e[5mC]) [compound 422176]
[5]
  % Inhibition of human Factor 7 mRNA levels: 52%

## 422155 (antisense eG*eT*e[5mC]*dA*dG*dG*dG*d[5mC]*dT*dG*dG*dT*dT*dT*dT*dG*dG*eA*eG*eG) [compound 422155]
[1]
  % Inhibition of human Factor 7 mRNA levels: 34%

## 407943 (antisense eG*e[5mC]*eA*eG*eG*d[5mC]*dA*d[5mC]*d[5mC]*dA*d[5mC]*dA*dG*dG*dT*eG*eT*eG*e[5mC]*eG) [compound 407943]
[2]
  % Inhibition (human Factor 7 mRNA): 34%

## 407929 (antisense eG*e[5mC]*eA*eG*eA*dG*d[5mC]*dA*dG*d[5mC]*dA*dG*d[5mC]*d[5mC]*dT*eG*eA*eG*eG*e[5mC]) [compound 407929]
[2]
  % Inhibition (human Factor 7 mRNA): 53%

## 422244 (antisense eG*eA*dG*dG*dA*dG*dA*d[5mC]*dA*dA*dT*dG*dG*dT*d[5mC]*eA*eG*eG*eG*e[5mC]) [compound 422244]
[1]
  % Inhibition of human Factor 7 mRNA levels: 55%

## 416539 (antisense eG*eA*e[5mC]*eA*eG*dA*dG*d[5mC]*d[5mC]*dT*dG*dA*dG*d[5mC]*dT*eT*eG*eG*e[5mC]*eA) [compound 416539]
[3]
  % Inhibition of human Factor 7 mRNA levels: 53%

## 422184 (antisense eT*eG*e[5mC]*dG*d[5mC]*d[5mC]*dA*d[5mC]*d[5mC]*d[5mC]*dG*d[5mC]*d[5mC]*dG*dG*d[5mC]*dT*e[5mC]*eT*eG) [compound 422184]
[5]
  % Inhibition of human Factor 7 mRNA levels: 55%

## 416450 (antisense eG*eG*eT*eT*eT*dG*d[5mC]*dT*dG*dG*d[5mC]*dA*dT*dT*dT*e[5mC]*eT*eT*eT*eT) [compound 416450]
[3]
  % Inhibition of human Factor 7 mRNA levels: 49%

## 422136 (antisense e[5mC]*eA*eG*e[5mC]*eA*d[5mC]*dA*d[5mC]*dA*dT*dG*dG*dA*dG*dT*e[5mC]*eA*eG*e[5mC]*eA) [compound 422136]
Example 6 microwalk, nucleobases 15098 to 15122 of SEQ ID NO: 1, HepB3, lipofectin
  % Inhibition (human Factor 7 mRNA): 57%

## 422195 (antisense eA*e[5mC]*eT*dG*dA*dG*d[5mC]*dG*d[5mC]*dG*dG*dA*dA*dG*dA*dA*dG*eG*eG*eA) [compound 422195]
[4]
  % Inhibition (human Factor 7 mRNA): 37%

## 407661 (antisense eT*eT*eT*eA*e[5mC]*dA*dA*dG*dA*dG*d[5mC]*dA*dG*dG*dG*eT*eG*e[5mC]*e[5mC]*eT) [compound 407661]
[2]
  % Inhibition (human Factor 7 mRNA): 47%

## 407629 (antisense eT*e[5mC]*eA*eG*eT*dG*dA*dG*dG*dA*d[5mC]*d[5mC]*dA*d[5mC]*dG*eG*eG*e[5mC]*eT*eG) [compound 407629]
[2]
  % Inhibition (human Factor 7 mRNA): 34%
